{"source": "patent US20090061022A1", "about": "“Pharmaceutical composition comprising arsenite for the treatment of malignancy” (priority 2004, published 2009)", "assay": "Maximum tolerated dose assessment after daily oral administration for 14 days in the pig", "format": "in vivo, pigs (large white×landrace×pietrain)", "text": "The aims of this study were to establish a MTD and the kinetics of sodium meta-arsenite after repeated administration to pigs.\nSodium meta-arsenite was formulated using enteric-coated capsules (size no. 2) for a toxicology study in pigs. Cellulose-based clear capsules contained 1) sodium meta-arsenite as an active ingredient, 2) microcrystalline cellulose and colloidal silicon dioxide as excipients. The coating material of the capsules comprised of Eudragit L 12.5 (acrylic polymer) and Macrogol 6000 (polyethylene glycol as softener). It is resistant to gastric fluid at least for 1 hour.\nThe oral route was selected, as it is the intended route of administration in human. Based on previous studies, the following doses were selected: 7.5 and 10 mg/pig (equivalent to 24.5 and 32.5 mg/man). Capsules (enteric coated, size no. 2) of sodium meta-arsenite in concentrations of 7.5 and 10 mg/capsule, formulations, were stored in a refrigerator in the dark. Each dose was administered orally by gavages to groups of 12 male growing pigs (large white×landrace×pietrain) for 14 days, followed by a 14-day recovery period. The mean weight of the pigs was 16.8±2.3 kg at the beginning of the study.\nMortality and viability were checked twice daily, clinical examinations were performed daily and body weight was recorded twice a week. Scheduled termination was performed on day 29 (after 14 days of recovery). Macroscopic examination was performed on all animals and samples from brain (cerebellum, mid brain, cortex), heart, kidney, liver, lung, spleen, stomach wall, small intestine and large intestine taken for histopathology.\nBlood samples (10 ml) of both dose groups were collected for hematology and biochemistry analysis on days −2, −1, 0, 7, 14, 21, 28. The samples collected during the treatment period were taken prior to the administration of the next drug. […]"}
{"smiles": "O=[As][O-].[Na+]", "note": "[Sodium meta-arsenite, sodium meta-arsenite]", "values": [{"measurement": "Hematological and biochemical parameters", "setting": "7.5 and 10 mg/pig, 14 days", "value": "No (statistical) significant differences"}, {"measurement": "Mortality", "setting": "7.5 and 10 mg/pig, enteric-coated capsules, 14 days + 14-day recovery", "value": "No pigs died or were killed in extremis"}, {"measurement": "Drug related side effects", "setting": "pigs at the doses of 7.5 and 10 mg/day", "value": "did not induce any drug related side effects"}]}
